For data set [1] the following is noted: cited from earlier work.
Data set [2] in a line: Hole mobility rate of the hole transporting material. The conditions noted are these: hole transporting layer material. Type of data set: physicochemical.
A short description of another data set: Solubility in NMP. It is filed as physicochemical. The note with it: NMP solvent.
For data set [3] the following is noted: prior art material of CN103108859; cited from earlier work.
The mark [4] stands for this setting: commercially available hole transporting layer material.

Values after ≈ are worked out from the molar mass of the structure shown.

Take `c1ccc(-c2ccc(N(c3ccc(-c4ccccc4)cc3)c3ccc(N(c4ccc(-c5ccccc5)cc4)c4ccc(-c5ccccc5)cc4)cc3)cc2)cc1` [drawing 1]: in data set [1] (setting [4]), the lateral mobility rate result is listed as “not very high” and the longitudinal mobility rate entry is on record as “higher”. As to `c1ccc(-c2ccc(N(c3ccc(-c4ccccc4)cc3)c3ccc(-c4ccc(N(c5ccc(-c6ccccc6)cc5)c5ccc(-c6ccccc6)cc5)c5c4CCCC5)cc3)cc2)cc1` [Com. Example 3], the hole mobility rate in data set [2] is 7×10^−5 cm^2/V·S.

Regarding `Cc1ccccc1-c1ccc(N(c2ccc(-c3ccccc3)cc2)c2ccc(-c3ccc(N(c4ccc(-c5ccccc5)cc4)c4ccc(-c5ccccc5C)c5c4CCCC5)c4c3CCCC4)cc2)c2c1CCCC2` [Example 4], the hole mobility rate in data set [2] was 1.9×10^−4 cm^2/V·S. On the same count and under the same terms, the figure for `c1ccc(-c2ccc(N(c3ccc(-c4ccccc4)cc3)c3ccc(N(c4ccc(-c5ccccc5)cc4)c4ccc(-c5ccccc5)cc4)cc3)cc2)cc1` [Com. Example 4] is 2×10^−4 cm^2/V·S; for `c1ccc(-c2ccc(N(c3ccc(-c4ccccc4)cc3)c3ccc(-c4ccc(N(c5ccc(-c6ccccc6)cc5)c5ccc(-c6ccccc6)cc5)cc4)cc3)cc2)cc1` [Com. Example 1] it is 3×10^−4 cm^2/V·S. As for `Cc1ccc(-c2ccc(N(c3ccc(-c4ccccc4)cc3)c3ccc(-c4ccc(N(c5ccc(-c6ccccc6)cc5)c5ccc(-c6ccc(C)cc6)cc5)c5c4CCCC5)cc3)cc2)cc1` [Example 1], in the data set “Solubility in NMP”, the “solubility in NMP” value stood at 10000 µg/mL (≈ 11.4 mM). Besides, the hole mobility rate in data set [2] was 0.00041 cm²/(V·s). Turning to `Cc1ccc(-c2ccc(N(c3ccc(-c4ccccc4)cc3)c3ccc(-c4ccc(N(c5ccc(-c6ccccc6)cc5)c5ccc(-c6ccc(C)cc6)cc5)cc4)cc3)cc2)cc1` [Com. Example 2], the “solubility in NMP” value in the data set “Solubility in NMP” turned out to be 2200 µg/mL (≈ 2.68 mM). Further, in data set [2], the hole mobility rate was 3.5×10^−4 cm^2/V·S. Consider `Cc1cc(N(c2ccc(-c3ccccc3)cc2)c2ccc(-c3cccc4c3CCCC4)cc2)ccc1-c1ccc(N(c2ccc(-c3ccccc3)cc2)c2ccc(-c3cccc4c3CCCC4)cc2)cc1` [Example 3], for which the hole mobility rate in data set [2] is reported as 1.8×10^−4 cm^2/V·S. Consider `CC1(C)c2ccccc2-c2ccc(N(c3ccc4c(c3)C3(c5ccccc5-c5ccccc53)c3ccccc3-4)c3ccccc3-c3ccccc3)cc21`, for which, in data set [1] (prior art material of CN103108859), the mobility rate entry is listed as “higher”. Besides, in data set [3], the solubility entry is “good”. As for `Cc1cccc(-c2ccc(N(c3ccc(-c4cccc5c4CCCC5)cc3)c3ccc(-c4ccc(N(c5ccc(-c6cccc(C)c6)cc5)c5ccc(-c6cccc7c6CCCC7)cc5)c5c4CCCC5)cc3)cc2)c1` [Example 2], the hole mobility rate in data set [2] was 2.1×10^−4 cm^2/V·S.

Source of the values: US10686136B2, “Hole transporting material, OLED display panel and electronic device comprising the same” (SHANGHAI TIANMA AM-OLED CO., LTD., priority 2016, dated 2020).
